Measured values taken from US20080312322A1, “Organic Compounds” (priority 2005, published 2008).

Legend:
CRTh2 receptor [1] = biological target: T1, CRTh2 receptor (Homo sapiens, UniProt Q9Y5Y4); assay: Scintillation Proximity Assay (SPA) binding assay, 3H PGD2; set-up: expressed in transfected cells; host or cells: K562 or CHO cells, membranes; settings: membranes from K562 or CHO cells stably transfected with human CRTh2; 3H prostaglandin D2
T1 sequence (Q9Y5Y4 1-395): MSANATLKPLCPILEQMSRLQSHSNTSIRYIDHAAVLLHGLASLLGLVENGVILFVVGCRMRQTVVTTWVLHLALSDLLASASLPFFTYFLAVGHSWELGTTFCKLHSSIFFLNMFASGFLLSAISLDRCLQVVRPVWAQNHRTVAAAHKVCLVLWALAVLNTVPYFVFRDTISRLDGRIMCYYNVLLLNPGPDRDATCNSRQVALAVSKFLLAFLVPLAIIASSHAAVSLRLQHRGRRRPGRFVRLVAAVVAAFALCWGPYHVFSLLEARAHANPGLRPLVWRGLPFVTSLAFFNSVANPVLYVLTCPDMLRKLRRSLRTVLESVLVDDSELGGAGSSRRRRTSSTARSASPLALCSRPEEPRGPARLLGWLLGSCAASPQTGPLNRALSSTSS
Description: Scintillation Proximity Assay (SPA) protocol
Membranes are prepared from K562 or Chinese Hamster Ovary (CHO) cells stably transfected with human CRTh2 receptors.
The assay is performed in a 96-well U-bottomed polypropylene plate in a final volume of 100 μL and the components of the assay are added as follows: test compound in DMSO/assay buffer (25 μL), ^3H prostaglandin D2 (PGD2) (25 μL) and CRTh2 membrane fragments (50 μL). The assay is incubated at ambient temperature with shaking for 60 minutes, then harvested on to filter plates. The plate is dried for 2 hours, prior to addition of Micro-Scint 20M (50 μL) and sealing with TopSeal-S™. Plates are then counted using a Packard Top Count instrument, each well being counted for 20 minutes. Ki values are determined using Sigma Plot™ software.

CRTh2 receptor [2] = biological target: T1, CRTh2 receptor; assay: CRTh2 cAMP functional assay; format: cell-based; set-up: expressed in transfected cells; host or cells: CHO cells; settings: CHO cells stably transfected with CRTh2; 10 nM PGD2 and 5 μM forskolin; cAMP Alphascreen
Description: CRTh2 cAMP Assay Protocol
Test compounds are prepared in assay stimulation buffer/DMSO and 5 μL/well is added to an assay plate (384-well white opti-plate).
CHO cells stably transfected with the CRTh2 receptor are prepared (dissociated from a cell culture flask and washed in PBS) to a concentration of 4×10^6/mL in assay stimulation buffer and added to the assay plate (10 μL/well).
The assay plate is incubated at room temperature on a shaker for 15 minutes.
A mix of agonist (10 nM PGD2) and 5 μM forskolin is prepared in assay stimulation buffer and added to the assay plate (5 μL/well).
In addition, a cAMP standard is serially diluted in assay stimulation buffer and added to separate empty wells on the assay plate (20 μL/well).
The assay plate is incubated at room temperature on a shaker for 60 minutes.
A cell lysis mix (lysis buffer containing Alphascreen™ donor beads and biotinylated cAMP) is prepared under darkened conditions 60 minutes prior to addition. Alphascreen™ acceptor beads are added to the lysis mix after 60 minutes. […]
The assay plate is sealed with Topseal-S™ and incubated in the dark at room temperature on a shaker for 45 minutes. The plate is then counted using a Packard Fusion™ instrument.
The resulting counts per minute are converted to nM cAMP by using the prepared cAMP standard curve. IC50 values are then determined using Prism™ software.

Ki (CRTh2 receptor [1]) | IC50 (CRTh2 receptor [2]) | Compound
58 nM | 52 nM | CC(C)(Oc1ccc(Cl)cc1Cc1cc(Cl)ccc1OCC(=O)O)C(=O)O [Example 13, 2-[2-(2-carboxymethoxy-5-chloro-benzyl)-4-chloro-phenoxy]-2-methyl-propionic acid]
– | 68 nM | CCOC(=O)COc1ccc(Cl)cc1Cc1cc(Cl)ccc1OCC(=O)O [Example 2, [4-chloro-2-(5-chloro-2-ethoxycarbonylmethoxy-benzyl)-phenoxy]-acetic acid]
